Reference: patent US5869449A, “38-decarboxy-38-hydroxymethyl derivatives of teiocoplanin antibiotics and a process for preparing them” (Gruppo Lepetit S.P.A., priority 1990, dated 1999)

Assay: Acid-base titration (pK MCS)
Type: physicochemical
Details: methyl cellosolve (MCS) H2O 4/1, excess 0.01M HCl, titrated with 0.01N NaOH; one basic ionizable function

Substance	pKMCS
38-Decarboxy-38-hydroxymethyl of teicoplanin pseudoaglycon 1 [Example 2]	6.9
38-Decarboxy-38-hydroxymethyl of teicoplanin pseudoaglycon 2 [Example 3]	6.8
